The record followed here is ChEMBL document CHEMBL3853351, “Discovery of O6-benzyl glaziovianin A, a potent cytotoxic substance and a potent inhibitor of α,β-tubulin polymerization” (Bioorg Med Chem, 2016).

The species entered for assay [1] is Sus scrofa. Nature of the assay: Inhibition of [3H]colchicine binding to microtubule associated proteins free porcine brain alpha/beta-tubulin assessed as remaining radiolabeled binding at 100 uM measured after 5 mins by centrifugal gel filtration method relative to control.
For assay [2], the species on record is Sus scrofa. Put plainly: Inhibition of [3H]vinblastine binding to microtubule associated proteins free porcine brain alpha/beta-tubulin assessed as remaining radiolabeled binding at 100 uM measured after 5 mins by centrifugal gel filtration method relative to control.
The nature of assay [3]: Binding affinity to porcine alpha/beta tubulin assessed as decrease in tryptophan fluorescence measured after 30 mins by tryptophan fluorescence assay. Details: species or system Sus scrofa.
Assay [4] in a line: Cytotoxicity against human HeLa cells assessed as reduction in cell growth measured after 48 hrs by WST-8 assay. Format: functional, cell-based.
For assay [5], the species on record is Homo sapiens. Put plainly: Inhibition of alpha-[32P]-GTP binding to human gamma-tubulin at 60 uM preincubated for 15 mins followed by alpha-[32P]-GTP addition measured after 30 mins relative to control.
The subject of assay [6] is HeLa. Nature of the assay: Inhibition of bipolar spindle formation in human HeLa cells at 100 and 300 nM measured after 6 hrs by DAPI staining-based fluorescence microscopic analysis. The assay is classed as functional, cell-based.
The species entered for assay [7] is Sus scrofa. Put plainly: Inhibition of microtubule associated proteins free porcine brain alpha/beta-tubulin polymerization at 3 uM measured after 10 mins by thermostatic spectrophotometric method.
The subject of assay [8] is HeLa. Nature of the assay: Mitotic arrest in human HeLa cells at 100 nM measured after 18 hrs by propidium iodide-staining based flow cytometry. Format: functional, cell-based.
Assay [9] can be described thus: Inhibition of microtubule associated proteins free porcine brain alpha/beta-tubulin polymerization measured after 10 mins by thermostatic spectrophotometric method. Details: species or system Sus scrofa.
Assay [10] in a line: Inhibition of alpha-[32P]-GTP binding to human gamma-tubulin preincubated for 15 mins followed by alpha-[32P]-GTP addition measured after 30 mins.
Assay [11] relates to HeLa. Put plainly: Inhibition of bipolar spindle formation in human HeLa cells at 1 uM measured after 6 hrs by DAPI staining-based fluorescence microscopic analysis. The assay is classed as functional, cell-based.

SMILES strings stand for the structures. Where “and” joins values, the source holds several entries; their conditions need not be identical. Identical values can stand only once. Calls of active or inactive are those of the source. The calls are words filed in the database; no cut-off is given here.

For the molecule `CC[C@]1(O)C[C@@H]2CN(CCc3c([nH]c4ccccc34)[C@@](C(=O)OC)(c3cc4c(cc3OC)N(C)[C@H]3[C@@](O)(C(=O)OC)[C@H](OC(C)=O)[C@]5(CC)C=CCN6CC[C@]43[C@@H]65)C2)C1`, the Activity in assay [1] stood at 127%; in assay [2], 5.3%.

For `COc1cc2c(c(OC)c1OC)-c1ccc(OC)c(=O)cc1[C@@H](NC(C)=O)CC2` [COLCHICINE], the equilibrium dissociation constant (Kd) in [3] was 26600 nM. For the same molecule, the IC50 in assay [4] amounted to 20 nM.

For the molecule `COc1cc2occ(-c3cc(OC)c4c(c3OC)OCO4)c(=O)c2cc1OCc1ccccc1`, the Kd in assay [3] worked out at 1000 nM. In addition, the Activity in assay [1] is 20.3%; in assay [2], 118%. In assay [5], this molecule displayed an inhibition of 89.6%. The inhibition entry in [6] and in [7] was “Active” in each case. Also, the IC50 in [4] is 70 nM; in assay [9] it was 2100 nM. Moreover, the outcome in [8] was Active.

Consider `C#CCOc1cc2occ(-c3cc(OC)c4c(c3OC)OCO4)c(=O)c2cc1OC`, for which, in [10], the half-maximal inhibitory concentration (IC50) was 450 nM and 170 nM.

As for `COc1cc2c(=O)c(-c3cc(OC)c4c(c3OC)OCO4)coc2cc1OCc1ccccc1`, in assay [5], the inhibition came to 93.3%. Further, the IC50 in [4] worked out at 12800 nM.

Consider `COc1cc2occ(-c3cc(OC)c4c(c3OC)OCO4)c(=O)c2cc1OC` [GLAZIOVIANIN A], for which the Kd in assay [3] was determined as 80000 nM. For the same molecule, the Activity in assay [1] is 67.8%; in assay [2], 112%. The IC50 in assay [4] stood at 610 nM. The inhibition result in assay [11] was “Active”.
